The source of these data is patent US20170152258A9, “Substituted Pyridopyrazines as Syk Inhibitors” (HUTCHISON MEDIPHARMA LIMITED, priority 2012, published 2017).

A value given as a limit tells only on which side of the number the result lay.

In one assay the test system is RBL-2H3 cells. In words: IgE-induced Beta-hexosaminidase secretion in RBL-2H3 cells. In kind it is cell-based. The settings on record: DNP-BSA stimulation. In a few lines: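 RBL-2H3 cells sensitized overnight with 0.5 ug/ml SPE-7 IgE, washed, preincubated with compound 20 min at 37° C, then stimulated with DNP-BSA (150 ng/mL stock) for 45 min. Released β-hexosaminidase measured on supernatant with 1 mM 4-nitrophenyl N-acetyl-β-D-glucosaminide, pH 4.5, 1.5 hr at 37° C; absorbance 405 nm after carbonate quench.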

A further assay deals with Syk kinase (Homo sapiens, UniProt P43405). Kind of assay: SYK Enzymatic Assay (Z-LYTE Tyr 2 peptide). In kind it is biochemical. Conditions: 8 concentrations 1 μM down to 0.0003 μM. The procedure, abridged: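 Z-LYTE format using Tyr 2 peptide. After the 1 h room-temperature kinase reaction, development reagent was added for 1 h, then stop reagent. Fluorescence was read at 445 and 520 nm. Compounds were tested at 8 concentrations, 1 μM down to 0.0003 μM (1:3 dilutions).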

[1] abbreviates: Rattus norvegicus, RBL-2H3, IgE-induced Beta-hexosaminidase secretion.
Where [2] appears, read: IgE-induced Beta-hexosaminidase secretion.

For orientation: IC50 means the concentration that inhibits the measured activity by half. Higher therefore signals lower potency. Turning to `CN1CCN(c2ccc(-c3cc4nccnc4c(OC[C@@H]4CN(S(N)(=O)=O)CCO4)n3)cc2)CC1` [Compound 64], the IC50 in the assay on RBL-2H3 cells (setting [1]) stood at 487 nM; against Syk kinase, 20 nM.

On to `CC(=O)N1CCO[C@H](COc2nc(-c3ccc(N4CCN(C)CC4)c(C)c3)cc3nccnc23)C1` [Compound 186], for which the IC50 in the assay with RBL-2H3 cells (setting [1]) is 114 nM; at Syk kinase it was 81 nM.

Regarding `CC(=O)N1CC(c2ccc(-c3cc4nccnc4c(OC[C@@H]4CN(C(N)=O)CCO4)n3)cc2)C1` [Cmpd 296], the IC50 is greater than 3330 nM in the assay with RBL-2H3 cells (setting [1]) and 72 nM against Syk kinase.

For `CS(=O)(=O)N1CCC(c2ccc(-c3cc4nccnc4c(OC[C@@H]4CN(S(C)(=O)=O)CCO4)n3)cc2)CC1` [Compound 57, (S)-4-(methylsulfonyl)-2-((7-(4-(1-(methylsulfonyl)piperidin-4-yl)phenyl)pyrido[4,3-b]pyrazin-5-yloxy)methyl)morpholine], the IC50 amounted to 82 nM with RBL-2H3 cells (setting [1]) and 14 nM at Syk kinase.

For `COc1ccc(-c2cc3nccnc3c(O[C@@H]3CCOC3)n2)cc1OC` [Compound 150], the IC50 is 97 nM with RBL-2H3 cells (setting [1]) and 92 nM against Syk kinase.

In the case of `CN(C)c1ccc(-c2cc3nccnc3c(OC[C@@H]3CN(C(=O)[C@H]4CC[C@@H](O)CC4)CCO3)n2)cc1` [Compound 75], the concentration for half-maximal inhibition (IC50) with RBL-2H3 cells (setting [1]) is 131 nM; at Syk kinase, 95 nM.

With `CC(=O)N1CCC(c2ccc(-c3cc4nccnc4c(OC[C@@H]4CN(C(C)=O)CCO4)n3)cc2)CC1` [Compound 54], the IC50 in the assay with RBL-2H3 cells (setting [1]) turned out to be 257 nM; against Syk kinase, 73 nM.

Take `c1cnc2c(O[C@@H]3CCOC3)nc(-c3ccc(N4CCOCC4)cc3)cc2n1` [Compound 149]: the IC50 with RBL-2H3 cells (setting [1]) was 60 nM; against Syk kinase, 30 nM.

Regarding `CC(=O)N1CCO[C@H](COc2nc(-c3ccc(N(C)C)cc3)cc3nccnc23)C1` [Compound 67], the IC50 in the assay with RBL-2H3 cells (setting [1]) was determined as 89 nM; against Syk kinase, 52 nM.

For the molecule `CN(C)c1ccc(-c2cc3nccnc3c(OC[C@@H]3CN(S(C)(=O)=O)CCO3)n2)cc1` [Compound 94], the IC50 in the assay on RBL-2H3 cells (setting [2]) came out at 40 nM; with RBL-2H3 cells (setting [1]), 22 nM; against Syk kinase it was 15 nM.

`Cc1cc(-c2cc3nccnc3c(OC[C@@H]3CN(C(N)=O)CCO3)n2)ccc1N(C)C` [Compound 163]: the IC50 with RBL-2H3 cells (setting [1]) is 53 nM; against Syk kinase, 36 nM.

With `CNC(=O)N1CCO[C@H](COc2nc(-c3ccc(C(C)(C)O)cc3)cc3nccnc23)C1` [Compound 264], the IC50 in the assay with RBL-2H3 cells (setting [1]) is 339 nM; on Syk kinase it was 38 nM.

In the case of `CNc1ccc(-c2cc3nccnc3c(OC[C@@H]3CN(C(=O)[C@H]4CCOC4)CCO3)n2)cc1` [Compound 50], the half-maximal inhibitory concentration (IC50) in the assay on RBL-2H3 cells (setting [1]) amounted to 108 nM; at Syk kinase, 64 nM.

`CC1(C)OCc2cc(-c3cc4nccnc4c(OC[C@@H]4CN(S(C)(=O)=O)CCO4)n3)ccc21` [Compound 299]: the half-maximal inhibitory concentration (IC50) came to 47 nM in the assay with RBL-2H3 cells (setting [1]) and 14 nM at Syk kinase.

In the case of `CC(C)(C(=O)O)c1ccc(-c2cc3nccnc3c(OC[C@@H]3CN(S(C)(=O)=O)CCO3)n2)cc1` [Compound 318], the IC50 with RBL-2H3 cells (setting [1]) was 174 nM; against Syk kinase, 17 nM.

`O=C(C(F)F)N1CCO[C@H](COc2nc(-c3ccc(N4CCOCC4)cc3)cc3nccnc23)C1` [Compound 61]: the IC50 in the assay with RBL-2H3 cells (setting [1]) is 29 nM; against Syk kinase, 27 nM.

Consider `Cc1cc(-c2cc3nccnc3c(OC[C@@H]3CN(C(=O)[C@@H](C)O)CCO3)n2)ccc1N(C)C` [Compound 200], for which the results for the IC50 in the assay with RBL-2H3 cells (setting [1]) and on Syk kinase were 133 nM and 51 nM, respectively.

As to `CS(=O)(=O)N1CCO[C@H](COc2nc(-c3ccc(C4(O)CCOCC4)cc3)cc3nccnc23)C1` [Compound 314], the figures for the IC50 with RBL-2H3 cells (setting [1]) and against Syk kinase were 117 nM and 43 nM, respectively.

For `CN1CCN(c2ccc(-c3cc4nccnc4c(OC[C@@H]4CN(C(=O)C(F)F)CCO4)n3)cc2)CC1` [Compound 16], the IC50 with RBL-2H3 cells (setting [1]) turned out to be 33 nM; against Syk kinase, 36 nM.

`CN(C)c1ccc(-c2cc3nccnc3c(OC[C@@H]3CN(C(=O)c4ncc[nH]4)CCO3)n2)cc1` [Compound 86]: the values for the IC50 in the assay with RBL-2H3 cells (setting [1]) and on Syk kinase were 616 nM and 110 nM, respectively.

As for `CS(=O)(=O)N1CCO[C@H](COc2nc(-c3ccc(N4CCOCC4)c(F)c3)cc3nccnc23)C1` [Compound 7], the IC50 in the assay with RBL-2H3 cells (setting [1]) came out at 122 nM; against Syk kinase, 71 nM.

Turning to `CCN(CC)c1ccc(-c2cc3nccnc3c(O[C@@H]3CCOC3)n2)cc1` [Compound 151], the IC50 with RBL-2H3 cells (setting [1]) amounted to 43 nM; against Syk kinase, 44 nM.

For `CS(=O)(=O)N1CCC(c2ccc(-c3cc4nccnc4c(OC[C@@H]4CNC(=O)C4)n3)cc2)CC1` [Compound 261, (S)-4-(((7-(4-(1-(methylsulfonyl)piperidin-4-yl)phenyl)pyrido[3,4-b]pyrazin-5-yl)oxy)methyl)pyrrolidin-2-one], the IC50 in the assay with RBL-2H3 cells (setting [1]) was determined as 418 nM; against Syk kinase, 52 nM.

Take `CC(=O)N1CCO[C@H](COc2nc(-c3ccc(N(C)C)c(C)c3)cc3nccnc23)C1` [Compound 158]: the IC50 in the assay on RBL-2H3 cells (setting [1]) was 32 nM; at Syk kinase, 30 nM.

For the molecule `C[C@@H]1CN(c2ccc(-c3cc4nccnc4c(O[C@@H]4CCOC4)n3)cc2)C[C@H](C)O1` [Compound 229], the half-inhibitory concentration (IC50) was determined as 94 nM in the assay on RBL-2H3 cells (setting [1]) and 49 nM against Syk kinase.

Consider `CC(=O)N1CCO[C@H](COc2nc(-c3ccc4c(c3)OCCN4C)cc3nccnc23)C1` [Compound 148], for which the IC50 with RBL-2H3 cells (setting [1]) was 137 nM; on Syk kinase it was 95 nM.

Turning to `CC1(c2ccc(-c3cc4nccnc4c(OC[C@@H]4CN(S(C)(=O)=O)CCO4)n3)cc2)COC1` [Compound 317], the IC50 was found to be 94 nM with RBL-2H3 cells (setting [1]) and 33 nM on Syk kinase.

For the molecule `CN(C)c1ccc(-c2cc3nccnc3c(OC[C@@H]3CN(C(N)=O)CCO3)n2)cc1F` [Compound 183], the figures for the IC50 in the assay with RBL-2H3 cells (setting [1]) and against Syk kinase were 95 nM and 76 nM, respectively.

Take `COC(C)(C)c1ccc(-c2cc3nccnc3c(OC[C@@H]3CN(S(C)(=O)=O)CCO3)n2)cc1` [Compound 268]: the figures for the IC50 in the assay with RBL-2H3 cells (setting [1]) and at Syk kinase were 36 nM and 18 nM, respectively.

On to `Cc1cc(-c2cc3nccnc3c(OC[C@@H]3CN(C(=O)[C@H](C)O)CCO3)n2)ccc1N(C)C` [Compound 201], for which the IC50 turned out to be 100 nM with RBL-2H3 cells (setting [1]) and 49 nM at Syk kinase.

Take `CC(=O)N1CCO[C@H](COc2nc(-c3ccc4c(c3)CCCN4C)cc3nccnc23)C1` [Compound 185]: the IC50 with RBL-2H3 cells (setting [1]) is 64 nM; at Syk kinase, 40 nM.

On to `N#CC1(c2ccc(-c3cc4nccnc4c(OC[C@@H]4CN(C(N)=O)CCO4)n3)cc2)CCC1` [Compound 290], for which the IC50 stood at 467 nM with RBL-2H3 cells (setting [2]), 374 nM with RBL-2H3 cells (setting [1]) and 50 nM against Syk kinase.

`CC(=O)N1CCO[C@H](COc2nc(-c3ccc(N(C)C)c(F)c3)cc3nccnc23)C1` [Compound 139]: the IC50 in the assay on RBL-2H3 cells (setting [2]) came out at 194 nM; with RBL-2H3 cells (setting [1]), 119 nM; against Syk kinase, 95 nM.

For `OCCN1CCC(c2ccc(-c3cc4nccnc4c(O[C@@H]4CCOC4)n3)cc2)CC1` [Compound 227], the IC50 in the assay on RBL-2H3 cells (setting [1]) worked out at 70 nM; against Syk kinase, 37 nM.

As to `CCC(O)(CC)c1ccc(-c2cc3nccnc3c(OC[C@@H]3CN(C(N)=O)CCO3)n2)cc1` [Compound 281], the values for the concentration for half-maximal inhibition (IC50) in the assay on RBL-2H3 cells (setting [1]) and against Syk kinase were 663 nM and 65 nM, respectively.

`CN(C)c1ccc(-c2cc3nccnc3c(OC[C@@H]3CN(C(N)=O)CCO3)n2)cc1Cl` [Compound 165]: the IC50 with RBL-2H3 cells (setting [1]) is 95 nM; on Syk kinase it was 48 nM.

As for `CNc1ccc(-c2cc3nccnc3c(O[C@@H]3CCOC3)n2)cc1` [Compound 133], the IC50 with RBL-2H3 cells (setting [1]) was determined as 24 nM; against Syk kinase, 45 nM.
